Laboratory results reported in patent publication US20230225985A1, “TERPE[…] AND THEIR USE” (Phytotherapeutix Ltd., priority 2020, published 2023).
Where “and” joins values, the source holds several entries; their conditions need not be identical. Equal values may be shown once. Read-outs that look alike come from different tables or passages of the source.

Key:
Assay type in all cases: in vivo, Mouse (ICR:CD-1)
[1] = PK study: plasma levels after i.p. administration (LC/MS/MS); conditions: 100 mg/kg i.p.; for Time of maximal concentration in plasma after the injection: sampling at 30, 60, 120 min; for concentration at 30 min / concentration at 60 min / concentration at 120 min: CD-1, mouse, plasma, intraperitoneal, 100 mg/kg
Experimental: Route(s) of administration: Intraperitoneal (i.p.)
Vehicle for the test compounds and CBD: 1:1:18 ethanol:cremophor (Kolliphor) EL:0.9% saline
IP administration: 0.5 h (30 min), 1 h, 2 h,
For testing of each compound, six CD-1 mice were divided into 2 groups of 3. Animals were administered test agents via i.p. route and blood collected at 30, 60 and 120 min, administration as outlined in Table 1. Blood samples were collected in EDTA-coated microfuge tubes, inverted and placed on an ice pack prior to centrifugation and storage at −70° C. Samples were extracted using an acetonitrile/protein precipitation method and levels of test agent analysed by LC/MS/MS.
Bioanalytical detection method was developed using an LC/MS/MS (ABI 5000 or 5500). Standard curves of the test agent were prepared in an appropriate biological matrix (plasma). Levels of test article was measured in plasma as per the developed method.
Levels were determined by extrapolating the concentration from a standard curve using linear regression analysis. Method development and bioanalysis was performed by a partner company, Keystone Bioanalytical (North Wales, Pa., US).

[2] = tested on: PTZ mouse model of seizures; test: PTZ-induced seizures study; conditions: for Protection from clonic seizures (PTZ) vs vehicle / Protection from tonic hindlimb seizures (PTZ) vs vehicle: 200 mg/kg IP, PTZ 100 mg/kg i.p.
Experimental: Route(s) of administration: Intraperitoneal (i.p.) and per oral (p.o.) (Diazepam)
(§1) Vehicle for the test compounds: 1:1:18 ethanol:cremophor (Kolliphor) EL:0.9% saline
Vehicle for diazepam: 0.5% MC, 0.1% Tween 80 in water
Interval between dose and evaluation: 30 min for test articles and diazepam, 60 min for CBD
Mice were acclimated to the procedure room for at least 30 minutes. Pentylenetetrazole (PTZ; SigmaAldrich) was formulated in water to a concentration of 20 mg/ml. Injections of PTZ were made at a volume of 5 ml/kg to produce a final dose of 100 mg/kg. PTZ injections were i.p. Diazepam was formulated at a concentration of 2 mg/ml and administered at volume of 10 ml/kg to produce a final dose of 20 mg/kg. Time to initial myoclonic and tonic hindlimb extensor response was measured. A 10-min maximum latency to seizure was imposed.
(§2) The data was expressed as mean+SEM. Statistical analysis using one-way ANOVA with post-hoc Fisher's LSD test was used to determine statistical significance compared to the vehicle-treated animals.

[3] = tested on: MES mouse model of seizures; test: Maximal Electroshock (MES) seizure study; conditions: for Effect in MES study (latency to tonic hindlimb seizure) vs vehicle: 200 mg/kg IP
Experimental: Route(s) of administration: Intraperitoneal (i.p.) and per oral (p.o.)
as §1
Vehicle for phenytoin: 0.5% MC in water
Dose Levels: 100-200 mg/kg (Table 2), Phenytoin 60 mg/kg
Interval between dose and evaluation: 30 min for test articles and phenytoin, 60 min for CBD
Animals were administered vehicle, phenytoin, CBD or test compounds and gross behavioural observations were done for 30 minutes. Proparacaine hydrochloride ophthalmic solution (Butler AHS, Dublin, Ohio) was applied approximately 10 minutes prior to testing to numb the eyes. Thirty to sixty minutes after administration of vehicle, phenytoin, CBD or test compounds, 0.9% saline solution (sodium chloride in water) was applied to both eyes and electro-convulsions were produced by an alternating current delivered via corneal electrodes by a Rodent Shocker generator at a frequency of 60 Hz (Harvard Apparatus, Holliston, Mass.). Parameters for the ICR:CD1 mice were 0.2 s stimulus duration at an intensity of 25 mA. The criterion for seizure occurrence were presence of a tonic hind limb extension, defined as extension exceeding a 90-degree angle with the plane of the body. […] Any seizure activity (i.e. clonic seizures defined as rapid spasms or jerky movements of the limbs) prior to tonic hind limb seizure were recorded as presence of seizure (noted as 1-yes, 0-no). After seizure exhibition or 20-second timeout, mice were euthanized via cervical dislocation.
as §2

[4] = 30 min pretreatment, listed as (−)-trans CBD-PET
[5] = 30 min pretreatment, listed as CBD-PET
[6] = 30 min pretreatment, listed as (−)-trans CBD-PET-OH
[7] = 30 min pretreatment, listed as CBD-PET-OH

C=C(C)[C@@H]1CCC(C)=C[C@H]1c1c(O)cc(CCc2ccccc2)cc1O [(−)-trans-CBD-PET, (1′R,2′R)-5′-methyl-4-phenethyl-2′-(prop-1-ene-2-yl)-1′,2′,3′,4′-tetrahydro-[1,1′-biphenyl]-2,6-diol]
(—)-trans-CBD-PET in plasma ([1]; 30 min, individual animals): 3519.2 ng/mL and 3872.3 ng/mL | (—)-trans-CBD-PET in plasma ([1]; 60 min, individual animals): 2729.5 ng/mL and 1728.7 ng/mL | (—)-trans-CBD-PET in plasma ([1]; 120 min, individual animals): 2188.6 ng/mL and 770.3 ng/mL and 982.7 ng/mL | Time of maximal concentration in plasma after the injection [1]: 30 min | concentration at 30 min ([1]; 30 min, average of 3 mice, read-out: Average (ng/ml), (—)-trans-CBD-PET in plasma): 3810 ng/mL | concentration at 30 min ([1]; 30 min, individual animals, read-out: (—)-trans-CBD-PET in plasma): 4030 ng/mL | concentration at 60 min ([1]; 60 min, average of 3 mice, read-out: Average (ng/ml), (—)-trans-CBD-PET in plasma): 2140 ng/mL | concentration at 60 min ([1]; 60 min, individual animals, read-out: (—)-trans-CBD-PET in plasma): 1960 ng/mL | concentration at 120 min ([1]; 120 min, average of 3 mice, read-out: Average (ng/ml), (—)-trans-CBD-PET in plasma): 1310 ng/mL | Protection from clonic seizures (PTZ) vs vehicle [2, 4]: significant protection | Protection from tonic hindlimb seizures (PTZ) vs vehicle [2, 4]: significant effect | Protection from clonic seizures (PTZ) vs vehicle [2, 5]: activity against both clonic and tonic seizures | Protection from tonic hindlimb seizures (PTZ) vs vehicle [2, 5]: activity against both clonic and tonic seizures | Effect in MES study (latency to tonic hindlimb seizure) vs vehicle ([3]; 30 min pretreatment): inactive

C=C(C)[C@@H]1CCC(C)=C[C@H]1c1c(O)cc(CCc2ccc(O)cc2)cc1O [(−)-trans-CBD-PET-OH, (1′R,2′R)-4-(4-hydroxyphenethyl)-5′-methyl-2′-(prop-1-ene-2-yl)-1′,2′,3′,4′-tetrahydro-[1,1′-biphenyl]-2,6-diol]
(—)-trans-CBD-PET-OH in plasma ([1]; 30 min, individual animals): 8897.4 ng/mL and 8936.2 ng/mL | (—)-trans-CBD-PET-OH in plasma ([1]; 60 min, individual animals): 8877.8 ng/mL and 8055.5 ng/mL | (—)-trans-CBD-PET-OH in plasma ([1]; 120 min, individual animals): 2831.1 ng/mL and 3274.9 ng/mL | Time of maximal concentration in plasma after the injection [1]: 30 min | concentration at 30 min ([1]; 30 min, average of 3 mice, read-out: Average (ng/ml), (—)-trans-CBD-PET-OH in plasma): 8120 ng/mL | concentration at 30 min ([1]; 30 min, individual animals, read-out: (—)-trans-CBD-PET-OH in plasma): 6520 ng/mL | concentration at 60 min ([1]; 60 min, average of 3 mice, read-out: Average (ng/ml), (—)-trans-CBD-PET-OH in plasma): 7920 ng/mL | concentration at 60 min ([1]; 60 min, individual animals, read-out: (—)-trans-CBD-PET-OH in plasma): 6840 ng/mL | concentration at 120 min ([1]; 120 min, average of 3 mice, read-out: Average (ng/ml), (—)-trans-CBD-PET-OH in plasma): 3460 ng/mL | concentration at 120 min ([1]; 120 min, individual animals, read-out: (—)-trans-CBD-PET-OH in plasma): 4290 ng/mL | Protection from tonic hindlimb seizures (PTZ) vs vehicle [2, 6]: significant effect | Protection from tonic hindlimb seizures (PTZ) vs vehicle [2, 7]: particularly effective against tonic seizures | Effect in MES study (latency to tonic hindlimb seizure) vs vehicle [3, 6]: significantly different from vehicle | Effect in MES study (latency to tonic hindlimb seizure) vs vehicle [3, 7]: effective

C=C(C)[C@@H]1CCC(C)=C[C@H]1c1c(O)cc(CCCCC)cc1O [Cannabidiol, reference compound]
Effect in PTZ model vs vehicle ([2]; 100 mg/kg IP, 60 min prior to PTZ): did not produce a significant effect | Effect in MES model vs vehicle ([3]; 100 mg/kg IP, 60 min prior to MES): did not produce a significant effect

CN1C(=O)CN=C(c2ccccc2)c2cc(Cl)ccc21 [diazepam, reference compound]
Protection from the seizures (PTZ, clonic and tonic hindlimb) ([2]; 30 mg/kg PO (Table 3), 30 min pretreatment, positive control): 100%

O=C1NC(=O)C(c2ccccc2)(c2ccccc2)N1 [phenytoin, reference compound]
Protection from the seizures (MES) ([3]; 60 mg/kg PO, 30 min pretreatment, positive control): 100%
